IC50 data for 18 compounds are collected here from patent US20230066011A1, “PYRROLOPYRIMIDINE DERIVATIVE, AND PHARMACEUTICAL COMPOSITION FOR PREVENTING OR TREATING PROTEIN KINASE-RELATED DISEASE COMPRISING SAME AS ACTIVE INGREDIENT” (VORONOI CO., LTD., priority 2019, published 2023).

Holding throughout (format): biochemical
One assay concerns the target T1, human GST-CLK1 (Homo sapiens, UniProt P49759).
T1 construct: purified human GST-CLK1 (129-end, SignalChem) enzyme; purchased SignalChem
The assay is described as follows: GST-CLK1 enzyme inhibition, ADP-Glo kinase assay. The settings on record: ATP 10 μM, GST-CLK1 129-end. In outline: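 ADP-Glo luminescence read-out, relative to untreated solvent control, gave IC50 (nM) from triplicate data sets. Reactions ran an hour at 25° C with 3 ng GST-CLK1 (residues 129-end), 10 μM ATP and specific substrate in Tris-HCl pH 7.4 buffer with MgCl2, BSA and DTT.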
(In general: ADP-Glo first removes unused ATP, then detects ADP through luciferase.)

The next assay has as its target LRRK2 (G2019S) (Homo sapiens, UniProt Q5S007, G2019S). Kind of assay: LRRK2 G2019S enzyme inhibition, ADP-Glo kinase assay. The conditions noted are these: ATP 25 μM. Also on record: purchased SignalChem L10-12GG. In outline:
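IC50 derived from luminescent ADP-Glo readout against untreated solvent control, twelve final compound concentrations from 50 μM downward. Reaction: recombinant human LRRK2 G2019S enzyme, 25 μM ATP, substrate, pH 7.4 Tris buffer with MgCl2/BSA/DTT, 25° C. for 2 hours.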

The target of a further assay is T2, human GST-DYRK1A (Homo sapiens, UniProt Q13627).
T2 construct: purified human GST-DYRK1A (full length, Thermo Scientifics) enzyme; purchased Thermo Scientifics
Kind of assay: GST-DYRK1A enzyme inhibition, ADP-Glo kinase assay. The settings on record: ATP 10 μM, GST-DYRK1A full length, read-out: DYRK1 IC50. In outline:
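Full-length enzyme (10 ng) was incubated with 10 μM ATP and a specific substrate for 1 h at 25 °C in 40 mM Tris-HCl pH 7.4, 20 mM MgCl2, 0.5 mg/mL BSA, 50 μM DTT. Luminescence was read against a solvent control, and IC50 values were derived from 3 data sets.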

Each structure is given as a SMILES string.

LRRK2 (G2019S), sequence (Q5S007 970-2527 G2019S limits assumed): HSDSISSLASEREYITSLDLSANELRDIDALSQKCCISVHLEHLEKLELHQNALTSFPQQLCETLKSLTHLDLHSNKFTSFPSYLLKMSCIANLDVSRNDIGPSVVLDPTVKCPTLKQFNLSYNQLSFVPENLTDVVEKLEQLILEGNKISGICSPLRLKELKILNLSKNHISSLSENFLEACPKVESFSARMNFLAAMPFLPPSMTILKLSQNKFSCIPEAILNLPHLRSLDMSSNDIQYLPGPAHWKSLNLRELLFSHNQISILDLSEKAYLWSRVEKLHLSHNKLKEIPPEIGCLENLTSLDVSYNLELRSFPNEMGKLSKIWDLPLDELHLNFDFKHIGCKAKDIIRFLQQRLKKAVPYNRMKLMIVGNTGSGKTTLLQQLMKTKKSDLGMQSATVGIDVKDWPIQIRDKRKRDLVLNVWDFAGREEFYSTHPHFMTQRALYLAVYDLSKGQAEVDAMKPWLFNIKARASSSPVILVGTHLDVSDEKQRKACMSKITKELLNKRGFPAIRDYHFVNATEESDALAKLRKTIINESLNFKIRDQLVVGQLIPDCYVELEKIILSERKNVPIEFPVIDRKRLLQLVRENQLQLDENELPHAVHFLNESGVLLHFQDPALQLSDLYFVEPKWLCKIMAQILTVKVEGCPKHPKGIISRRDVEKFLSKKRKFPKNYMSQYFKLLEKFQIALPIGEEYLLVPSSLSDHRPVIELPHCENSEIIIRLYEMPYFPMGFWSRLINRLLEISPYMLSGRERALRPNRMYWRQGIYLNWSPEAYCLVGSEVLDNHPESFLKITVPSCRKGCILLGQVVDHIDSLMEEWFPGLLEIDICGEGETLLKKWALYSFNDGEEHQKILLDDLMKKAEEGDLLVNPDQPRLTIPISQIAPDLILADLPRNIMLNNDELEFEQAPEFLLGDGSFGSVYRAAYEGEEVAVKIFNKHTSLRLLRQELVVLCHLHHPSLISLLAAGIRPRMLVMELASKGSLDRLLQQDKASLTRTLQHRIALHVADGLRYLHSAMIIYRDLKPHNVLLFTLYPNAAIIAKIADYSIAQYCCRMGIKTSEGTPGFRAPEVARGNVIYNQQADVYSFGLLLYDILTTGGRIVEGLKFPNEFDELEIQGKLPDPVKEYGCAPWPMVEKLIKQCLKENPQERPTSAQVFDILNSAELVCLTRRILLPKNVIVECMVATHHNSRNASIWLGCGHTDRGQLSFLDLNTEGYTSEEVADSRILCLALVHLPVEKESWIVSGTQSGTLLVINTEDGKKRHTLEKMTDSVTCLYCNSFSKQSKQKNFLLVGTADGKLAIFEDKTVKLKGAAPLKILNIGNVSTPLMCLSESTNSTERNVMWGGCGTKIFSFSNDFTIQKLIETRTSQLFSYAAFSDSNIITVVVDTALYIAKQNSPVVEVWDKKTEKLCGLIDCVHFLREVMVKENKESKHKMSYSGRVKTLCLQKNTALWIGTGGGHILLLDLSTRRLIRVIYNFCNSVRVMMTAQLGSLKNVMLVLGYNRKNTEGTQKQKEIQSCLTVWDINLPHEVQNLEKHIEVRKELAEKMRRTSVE
T1 sequence (P49759 129-484 limits assumed): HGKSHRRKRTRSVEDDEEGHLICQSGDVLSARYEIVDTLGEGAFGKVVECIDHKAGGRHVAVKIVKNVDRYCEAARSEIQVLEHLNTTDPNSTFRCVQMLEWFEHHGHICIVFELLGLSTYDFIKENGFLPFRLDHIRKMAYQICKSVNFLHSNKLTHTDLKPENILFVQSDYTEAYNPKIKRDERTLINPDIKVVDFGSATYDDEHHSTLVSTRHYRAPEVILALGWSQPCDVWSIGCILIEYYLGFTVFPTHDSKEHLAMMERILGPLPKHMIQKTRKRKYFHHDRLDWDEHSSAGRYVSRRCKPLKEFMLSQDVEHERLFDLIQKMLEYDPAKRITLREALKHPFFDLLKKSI

For `O=C(c1ccc(Nc2nc(NCC3CC3)c3cc[nH]c3n2)c2c1OCCO2)N1CCOCC1` [Example 53, (8-((4-((cyclopropylmethyl)amino)-7H-pyrrolo[2,3-d]pyrimidin-2-yl)amino)-2,3-dihydrobenzo[b][1,4]dioxin-5-yl)(morpholino)methanone], the IC50 is 301 to 1000 nM on human GST-CLK1, < 100 nM on LRRK2 (G2019S) and 301 to 1000 nM on human GST-DYRK1A.
On to `COc1cc(S(=O)(=O)N2CCC(N3CCOCC3)CC2)ccc1Nc1nc(NC2CC2)c2cc[nH]c2n1` [Example 54, N^4-cyclopropyl-N^2-(2-methoxy-4-((4-morpholinopiperidin-1-yl)sulfonyl)phenyl)-7H-pyrrolo[2,3-d]pyrimidine-2,4-diamine], for which the IC50 is 301 to 1000 nM at human GST-CLK1, < 100 nM at LRRK2 (G2019S) and 301 to 1000 nM at human GST-DYRK1A.
Take `COc1cc(S(C)(=O)=O)ccc1Nc1nc(NC2CC2)c2cc[nH]c2n1` [Example 55, N^4-cyclopropyl-N^2-(2-methoxy-4-(methylsulfonyl)phenyl)-7H-pyrrolo[2,3-d]pyrimidine-2,4-diamine]: the IC50 is 301 to 1000 nM at human GST-CLK1, < 100 nM against LRRK2 (G2019S) and 301 to 1000 nM on human GST-DYRK1A.
For the compound `O=C(c1ccc(Nc2nc(NC3CC3)c3cc[nH]c3n2)c2c1OCCO2)N1CCOCC1` [Example 56, (8-((4-(cyclopropylamino)-7H-pyrrolo[2,3-d]pyrimidin-2-yl)amino)-2,3-dihydrobenzo[b][1,4]dioxin-5-yl)(morpholino)methanone], the concentration for half-maximal inhibition (IC50) at human GST-CLK1 is 301 to 1000 nM; against LRRK2 (G2019S), < 100 nM; at human GST-DYRK1A, 301 to 1000 nM.
In the case of `COc1cc(S(=O)(=O)N2CCOCC2)ccc1Nc1nc(NC2CC2)c2cc[nH]c2n1` [Example 57, N^4-cyclopropyl-N^2-(2-methoxy-4-(morpholinosulfonyl)phenyl)-7H-pyrrolo[2,3-d]pyrimidine-2,4-diamine], the figures for the IC50 against human GST-CLK1, against LRRK2 (G2019S) and on human GST-DYRK1A were 301 to 1000 nM, < 100 nM and 301 to 1000 nM, respectively.
With `CC[C@@H](C)Nc1nc(Nc2ccc(S(=O)(=O)N3CCOCC3)cc2OC)nc2[nH]ccc12` [Example 59, (R)-N^4-(sec-butyl)-N^2-(2-methoxy-4-(morpholinosulfonyl)phenyl)-7H-pyrrolo[2,3-d]pyrimidine-2,4-diamine], the IC50 against human GST-CLK1 was 301 to 1000 nM; against LRRK2 (G2019S) it was < 100 nM; at human GST-DYRK1A, 301 to 1000 nM.
`CC[C@H](C)Nc1nc(Nc2ccc(S(=O)(=O)N3CCOCC3)cc2OC)nc2[nH]ccc12` [Example 60, (S)-N^4-(sec-butyl)-N^2-(2-methoxy-4-(morpholinosulfonyl)phenyl)-7H-pyrrolo[2,3-d]pyrimidine-2,4-diamine]: the results for the IC50 against human GST-CLK1, on LRRK2 (G2019S) and on human GST-DYRK1A were 301 to 1000 nM, 101 to 300 nM and 301 to 1000 nM, respectively.
Regarding `COc1cc(S(=O)(=O)N2CCOCC2)ccc1Nc1nc(NC2CCOCC2)c2c(C#N)c[nH]c2n1` [Example 76, 2-((2-methoxy-4-(morpholinosulfonyl)phenyl)amino)-4-((tetrahydro-2H-pyran-4-yl)amino)-7H-pyrrolo[2,3-d]pyrimidine-5-carbonitrile], the IC50 was 301 to 1000 nM on human GST-CLK1, < 100 nM on LRRK2 (G2019S) and 301 to 1000 nM at human GST-DYRK1A.
Take `COc1cc(S(C)(=O)=O)ccc1Nc1nc(NCC(C)C)c2c(C#N)c[nH]c2n1` [Example 100, 4-(isobutylamino)-2-((2-methoxy-4-(methylsulfonyl)phenyl)amino)-7H-pyrrolo[2,3-d]pyrimidine-5-carbonitrile]: the IC50 was 301 to 1000 nM on human GST-CLK1, < 100 nM on LRRK2 (G2019S) and 301 to 1000 nM on human GST-DYRK1A.
As to `COc1cc(S(C)(=O)=O)ccc1Nc1nc(NCC2CC2)c2c(C#N)c[nH]c2n1` [Example 110, 4-((cyclopropylmethyl)amino)-2-((2-methoxy-4-(methylsulfonyl)phenyl)amino)-7H-pyrrolo[2,3-d]pyrimidine-5-carbonitrile], the IC50 against human GST-CLK1 is 301 to 1000 nM; against LRRK2 (G2019S), < 100 nM; on human GST-DYRK1A, 301 to 1000 nM.
`CC(C)CNc1nc(Nc2ccc(C(=O)N3CCOCC3)c3c2OCCO3)nc2[nH]cc(C#N)c12` [Example 121, 4-(isobutylamino)-2-((8-(morpholine-4-carbonyl)-2,3-dihydrobenzo[b][1,4]dioxin-5-yl)amino)-7H-pyrrolo[2,3-d]pyrimidine-5-carbonitrile]: the IC50 on human GST-CLK1 was 101 to 300 nM; on LRRK2 (G2019S) it was < 100 nM; on human GST-DYRK1A it was 301 to 1000 nM.
Taken in the same sequence, the figures for `CCNc1nc(Nc2ccc(P3(=O)CCN(Cc4ccc(OC)cc4OC)CC3)cn2)nc2[nH]cc(C(F)(F)F)c12` [Example 153, 1-(2,4-dimethoxybenzyl)-4-(6-((4-(ethylamino)-5-(trifluoromethyl)-7H-pyrrolo[2,3-d]pyrimidin-2-yl)amino)pyridin-3-yl)-1,4-azaphosphinane 4-oxide] were < 100 nM, < 100 nM and < 100 nM.
For `O=C(c1ccc(Nc2nc(N[C@H]3CCOC3)c3c(C(F)(F)F)c[nH]c3n2)c2c1OCCO2)N1CCOCC1` [Example 209, (S)-morpholino(8-((4-((tetrahydrofuran-3-yl)amino)-5-(trifluoromethyl)-7H-pyrrolo[2,3-d]pyrimidin-2-yl)amino)-2,3-dihydrobenzo[b][1,4]dioxin-5-yl)methanone] the same measures were < 100 nM, < 100 nM and 301 to 1000 nM.
Taken in the same sequence, the figures for `COc1cc(S(C)(=O)=O)ccc1Nc1nc(N[C@@H]2CCOC2)c2c(C(F)(F)F)c[nH]c2n1` [Example 210, (R)-N^2-(2-methoxy-4-(methylsulfonyl)phenyl)-N^4-(tetrahydrofuran-3-yl)-5-(trifluoromethyl)-7H-pyrrolo[2,3-d]pyrimidine-2,4-diamine] were 301 to 1000 nM, < 100 nM and 301 to 1000 nM.
On to `CNc1nc(Nc2ccc(P3(=O)CCN(C4CC4)CC3)cc2OC)nc2[nH]cc(C(F)(F)F)c12` [Example 216, 1-cyclopropyl-4-(3-methoxy-4-((4-(methylamino)-5-(trifluoromethyl)-7H-pyrrolo[2,3-d]pyrimidin-2-y)amino)phenyl)-1,4-azaphosphinane 4-oxide], for which the results for the IC50 at human GST-CLK1, on LRRK2 (G2019S) and at human GST-DYRK1A were 101 to 300 nM, < 100 nM and 101 to 300 nM, respectively.
Turning to `N#Cc1c[nH]c2nc(Nc3ccc(C(=O)N4CCOCC4)c4c3OCCO4)nc(NC3CCCCC3)c12` [Example 248], the IC50 was 301 to 1000 nM at human GST-CLK1, < 100 nM at LRRK2 (G2019S) and 301 to 1000 nM on human GST-DYRK1A.
Consider `COc1cc(P2(=O)CCN(C3COC3)CC2)ccc1Nc1nc(NC2CCC2)c2c(C#N)c[nH]c2n1` [Example 288, 4-(cyclo-butylamino)-2-((2-methoxy-4-(1-(oxetan-3-yl)-4-oxido-1,4-azaphosphinan-4-yl)phenyl)amino)-7H-pyrrolo[2,3-d]pyrimidine-5-carbonitrile], for which the IC50 at human GST-CLK1, against LRRK2 (G2019S) and at human GST-DYRK1A was < 100 nM each time.
For `N#Cc1c[nH]c2nc(Nc3ccc(C(=O)N4CCN(C5COC5)CC4)c4c3OCCO4)nc(NC3CCC3)c12` [Example 289, 4-(cyclo-butylamino)-2-((8-(4-(oxetan-3-yl)piperazine-1-carbonyl)-2,3-dihydrobenzo[b] [1,4]dioxin-5-yl)amino)-7H-pyrrolo[2,3-d]pyrimidine-5-carbonitrile], the IC50 against human GST-CLK1 was < 100 nM; against LRRK2 (G2019S), < 100 nM; at human GST-DYRK1A it was 301 to 1000 nM.

In general, IC50 refers to the concentration that inhibits the measured activity by half.
